Measured values reported in patent publication US8231861B2, “Pancreatitis” (priority 2003, dated 2012).

Tests used:
[1] = tested on: wild type and TLR-4 knock out mice; assay: Arginine-induced acute pancreatitis in wild type and TLR-4 knock out mice; assay type: in vivo; settings: for pancreatitis outcome (in words): arginine 800 mg/100 g i.p. in two halves, evaluated three days later; for MPO activity in pancreas: after arginine i.p., FIG. 10
Description: To evaluate the effect of the absence of TLR4 in another model of pancreatitis, a new mouse model was created. […] See, e.g., Tani et al., Dig. Dis. Sci. 35, 367-374 (1990). Briefly, pancreatitis was induced in wild type and TLR-4 knock out mice by injecting (i.p.) arginine at a dose of 800 mg/100 g body weight. This dose of arginine was divided in two parts, one half injected at the beginning of the experiment and the other half injected one hour later. Three days later mice were sacrificed and the parameters relating to the severity of pancreatitis were evaluated. Analysis was performed substantially as described above.

[2] = tested on: wild type and TLR4−/− transgenic mice; settings: mouse, in vivo, ip
Description: Studies were performed on wild type and TLR4−/− transgenic mice weighing about 25-30 grams. Animals were housed in cages under standard conditions at room temperature with a twelve-hour light and dark cycle. Food and drinking water were available ad libitum. Secretagogue-induced pancreatitis was elicited by the hourly (twelve times) intraperitoneal injection of caerulein (50 μg/kg). […] One hour after the final caerulein or saline injection, animals were sacrificed by CO2 asphyxia, and tissue and blood samples were rapidly prepared for study. Harvested blood was allowed to clot and then centrifuged, and serum was obtained for measurement of amylase. […]
Tissue myeloperoxidase (MPO) activity was used as a marker for the sequestration of neutrophils within the pancreas by quantitating photometrically using 3,3′,5,5′-tetramethylbenzidine as a substrate. Pancreatic edema was quantitated by measuring tissue water content and expressing it as a percentage of tissue wet weight. Serum amylase activity was quantitated as described in Singh et al., J. Clin. Invest., 108:1387-1395 (2001). The extent of pancreatic acinar cell necrosis was quantitated morphometrically by an observer who was not aware of the sample identity. […] Ten randomly chosen microscopic fields (×125) were examined for each tissue sample, and the extent of acinar cell injury/necrosis was expressed as a percentage of total acinar tissue. […]

Molecule | pancreatitis outcome (in words) ([1]; TLR4 knock out mice) | MPO activity in pancreas ([1]; TLR4−/− mice) | reduction of serum amylase activity in TLR4−/− mice as compared to wild type mice ([1]; after administration of arginine i.p., FIG. 9) | pancreatitis outcome (in words) ([1]; normal (wild type) mice) | MPO activity in pancreas ([1]; wild type mice) | reduction of serum amylase activity in TLR4−/− mice as compared to wild type mice [2]
N=C(N)NCCC[C@H](N)C(=O)O [arginine] | significantly milder pancreatitis | 6.8±6.2 | more than 2.5 fold | pancreatitis that was more severe than that observed with caerulein administration | 472±320 | –
caerulein | – | – | – | – | – | more than 1.6 fold
